Assay results as given in patent publication US9598418B2, “Substituted phthalazin-1 (2H)-one derivatives as selective inhibitors of poly (ADP-ribose) polymerase-1” (CADILA HEALTHCARE LIMITED, priority 2012, dated 2017).
Where a name gives a salt, the structure may show the parent alone.

target: T1, PARP-1 (Homo sapiens, UniProt P09874); test: PARP-1 inhibitory activity, HT universal colorimetric PARP assay kit (Trevigen); format: biochemical; settings: estimation as calculated from a 4 point dose response curve; read-out: PARP-1 activity in vitro IC50
T1 construct: purchased Trevigen
T1 sequence (P09874 whole entry): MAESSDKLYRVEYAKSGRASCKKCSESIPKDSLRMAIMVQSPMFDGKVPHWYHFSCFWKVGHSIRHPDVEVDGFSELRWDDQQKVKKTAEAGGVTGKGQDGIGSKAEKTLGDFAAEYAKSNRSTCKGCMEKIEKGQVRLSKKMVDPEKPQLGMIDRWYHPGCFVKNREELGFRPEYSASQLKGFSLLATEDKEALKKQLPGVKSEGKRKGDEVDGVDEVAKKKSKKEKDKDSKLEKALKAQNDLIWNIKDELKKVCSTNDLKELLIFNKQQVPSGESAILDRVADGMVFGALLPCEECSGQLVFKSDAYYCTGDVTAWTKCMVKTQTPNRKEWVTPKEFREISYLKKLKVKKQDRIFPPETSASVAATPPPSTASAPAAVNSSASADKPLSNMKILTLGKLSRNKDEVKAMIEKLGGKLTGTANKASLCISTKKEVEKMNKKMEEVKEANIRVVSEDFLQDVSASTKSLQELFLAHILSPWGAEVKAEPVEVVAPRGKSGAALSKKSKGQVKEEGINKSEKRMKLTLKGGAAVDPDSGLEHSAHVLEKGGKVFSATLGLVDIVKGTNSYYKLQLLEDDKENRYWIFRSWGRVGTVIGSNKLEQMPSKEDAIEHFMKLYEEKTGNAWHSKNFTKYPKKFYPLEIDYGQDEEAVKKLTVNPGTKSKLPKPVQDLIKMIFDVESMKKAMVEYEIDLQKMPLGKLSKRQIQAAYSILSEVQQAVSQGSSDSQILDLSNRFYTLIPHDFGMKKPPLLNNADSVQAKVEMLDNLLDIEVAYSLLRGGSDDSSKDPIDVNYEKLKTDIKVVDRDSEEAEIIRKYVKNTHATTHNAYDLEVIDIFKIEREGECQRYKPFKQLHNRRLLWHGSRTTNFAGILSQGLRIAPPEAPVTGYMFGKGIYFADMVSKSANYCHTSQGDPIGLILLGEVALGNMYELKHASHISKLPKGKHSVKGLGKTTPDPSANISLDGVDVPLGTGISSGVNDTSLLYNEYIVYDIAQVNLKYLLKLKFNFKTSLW
Method: The compounds were tested for PARP-1 inhibitory activity by using HT universal colorimetric PARP assay kit obtained from Trevigen, following manufacturer's protocol.

| Compound | IC50 |
| --- | --- |
| O=C(c1cc(Cc2n[nH]c(=O)c3ccccc23)ccc1F)N1CC2CN(Cc3ccccc3)CC2C1 (single isomer, unassigned) [Compound 1, 4-(3-(5-benzyloctahydropyrrolo[3,4-c]pyrrole-2-carbonyl)-4-fluorobenzyl)phthalazin-1(2H)-one] | 11.5 nM |
| O=C(c1cc(Cc2n[nH]c(=O)c3ccccc23)ccc1F)N1CC2CN(Cc3ccccc3)CC2C1 (single isomer, unassigned) [Compound 9, 4-(3-(5-benzyloctahydropyrrolo[3,4-c]pyrrole-2-carbonyl)-4-fluorobenzyl)phthalazin-1(2H)-one hydrochloride] | 24 nM |
| O=C(c1cc(Cc2n[nH]c(=O)c3ccccc23)ccc1F)N1CC2C(=O)N(Cc3ccccc3)C(=O)C2C1 (stereo not shown) [Compound 2, 2-benzyl-5-(2-fluoro-5-((4-oxo-3,4-dihydrophthalazin-1-yl)methyl)benzoyl) tetrahydropyrrolo[3,4-c]pyrrole-1,3(2H,3aH)-dione] | 8.41 nM |
| O=C(c1cc(Cc2n[nH]c(=O)c3ccccc23)ccc1F)N1CC2CN(CC3CC3)CC2C1 (stereo not shown) [Compound 6, 4-(3-(5-(cyclopropylmethyl)octahydropyrrolo[3,4-c]pyrrole-2-carbonyl)-4-fluorobenzyl)phthalazin-1(2H)-one] | 46.7 nM |
| O=C(c1cc(Cc2n[nH]c(=O)c3ccccc23)ccc1F)N1CC2CN(CC(F)(F)F)CC2C1 (stereo not shown) [Compound 7, 4-(4-fluoro-3-(5-(2,2,2-trifluoroethyl)octahydropyrrolo[3,4-c]pyrrole-2-carbonyl)benzyl)phthalazin-1 (2H)-one] | 38.6 nM |
| O=C(c1cc(Cc2n[nH]c(=O)c3ccccc23)ccc1F)N1CC2COCC2C1 (stereo not shown) [Compound 14, 4-(4-fluoro-3-(hexahydro-1H-furo[3,4-c]pyrrole-5-carbonyl)benzyl)phthalazin-1 (2H)-one] | 46.5 nM |
| O=C(c1cc(Cc2n[nH]c(=O)c3ccccc23)ccc1F)N1CC2CNCC2C1 (stereo not shown) [Compound 15, 4-(4-fluoro-3-(octahydropyrrolo[3,4-c]pyrrole-2-carbonyl)benzyl)phthalazin-1(2H)-one] | 11.6 nM |
| CS(=O)(=O)N1CC2CN(C(=O)c3cc(Cc4n[nH]c(=O)c5ccccc45)ccc3F)CC2C1 (stereo not shown) [Compound 16, 4-(4-fluoro-3-(5-(methylsulfonyl)octahydropyrrolo[3,4-c]pyrrole-2-carbonyl)benzyl) phthalazin-1 (2H)-one] | 104 nM |
| O=C(c1cc(Cc2n[nH]c(=O)c3ccccc23)ccc1F)N1CC2CN(Cc3ccc(F)cc3F)CC2C1 (stereo not shown) [Compound 19, 4-(3-(5-(2,4-difluorobenzyl)octahydropyrrolo[3,4-c]pyrrole-2-carbonyl)-4-fluorobenzyl)phthalazin-1(2H)-one] | 34.4 nM |
| CN1CC2CN(C(=O)c3cc(Cc4n[nH]c(=O)c5ccccc45)ccc3F)CC2C1 (stereo not shown) [Compound 21, 4-(4-fluoro-3-(5-methyloctahydropyrrolo[3,4-c]pyrrole-2-carbonyl)benzyl)phthalazin-1(2H)-one] | 22.6 nM |
| O=C(c1cc(Cc2n[nH]c(=O)c3ccccc23)ccc1F)N1CC2CCCC2C1 (stereo not shown) [Compound 23, 4-(4-fluoro-3-(octahydrocyclopenta[c]pyrrole-2-carbonyl)benzyl)phthalazin-1(2H)-one] | 67.8 nM |
| O=C(c1cc(Cc2n[nH]c(=O)c3ccccc23)ccc1F)N1CC2CN(Cc3ccc(F)cc3)CC2C1 (stereo not shown) [Compound 24, 4-(4-fluoro-3-(5-(4-fluorobenzyl)octahydropyrrolo[3,4-c]pyrrole-2-carbonyl)benzyl) phthalazin-1 (2H)-one] | 9.85 nM |
| O=C(c1cc(Cc2n[nH]c(=O)c3ccccc23)ccc1F)N1CC2CN(Cc3ccccc3F)CC2C1 (stereo not shown) [Compound 25, 4-(4-fluoro-3-(5-(2-fluorobenzyl)octahydropyrrolo[3,4-c]pyrrole-2-carbonyl)benzyl) phthalazin-1(2H)-one] | 27.8 nM |
| COc1cccc(CN2CC3CN(C(=O)c4cc(Cc5n[nH]c(=O)c6ccccc56)ccc4F)CC3C2)n1 (stereo not shown) [Compound 26] | 36 nM |
| CN1C(=O)C2CN(C(=O)c3cc(Cc4n[nH]c(=O)c5ccccc45)ccc3F)CC2C1=O (stereo not shown) [Compound 27, 5-(2-fluoro-5-((4-oxo-3,4-dihydrophthalazin-1-yl)methyl)benzoyl)-2-methyl tetrahydropyrrolo[3,4-c]pyrrole-1,3(2H,3aH)-dione] | 12.5 nM |
| O=C(c1cc(Cc2n[nH]c(=O)c3ccccc23)ccc1F)N1CC2CN(c3ccccc3)CC2C1 (stereo not shown) [Compound 32, 4-(4-fluoro-3-(5-phenyloctahydropyrrolo[3,4-c]pyrrole-2-carbonyl)benzyl)phthalazin-1(2H)-one] | 11.5 nM |
| O=C(c1cc(Cc2n[nH]c(=O)c3ccccc23)ccc1F)N1CC2CN(C(F)F)CC2C1 (stereo not shown) [Compound 38, 4-(3-(5-(difluoromethyl)octahydropyrrolo[3,4-c]pyrrole-2-carbonyl)-4-fluorobenzyl) phthalazin-1 (2H)-one] | 91 nM |
| CC(C)n1ncc2c1CN(C(=O)c1cc(Cc3n[nH]c(=O)c4ccccc34)ccc1F)C2 [Compound 43, 4-(4-fluoro-3-(1-isopropyl-1,4,5,6-tetrahydropyrrolo[3,4-c]pyrazole-5-carbonyl)benzyl)phthalazin-1 (2H)-one] | 55.1 nM |
| CC(C)n1cc2c(n1)CN(C(=O)c1cc(Cc3n[nH]c(=O)c4ccccc34)ccc1F)C2 [Compound 45, 4-(4-fluoro-3-(2-isopropyl-2,4,5,6-tetrahydropyrrolo[3,4-c]pyrazole-5-carbonyl)benzyl) phthalazin-1(2H)-one] | 13.8 nM |
| O=C(c1cc(Cc2n[nH]c(=O)c3ccccc23)ccc1F)N1C[C@@H]2CC(F)(F)C[C@@H]2C1 [Compound 46, 4-(3-((3 aR,6aS)-5,5-difluorooctahydrocyclopenta[c]pyrrole-2-carbonyl)-4-fluorobenzyl)phthalazin-1(2H)-one] | 27.8 nM |
| COCCN1CC2CN(C(=O)c3cc(Cc4n[nH]c(=O)c5ccccc45)ccc3F)CC2C1 (stereo not shown) [Compound 47, 4-(4-fluoro-3-(5-(2-methoxyethyl)octahydropyrrolo[3,4-c]pyrrole-2-carbonyl)benzyl) phthalazin-1 (2H)-one] | 48.3 nM |
| O=C(NC1C[C@@H]2CN(C(=O)c3cc(Cc4n[nH]c(=O)c5ccccc45)ccc3F)C[C@@H]2C1)C1CC1 (stereo partly drawn) [Compound 48, N-((3 aR,6aS)-2-(2-fluoro-5-((4-oxo-3,4-dihydrophthalazin-1-yl)methyl)benzoyl)octahydrocyclopenta[c]pyrrol-5-yl)cyclopropanecarboxamide] | 74.5 nM |
| CC(C)n1cc2c(n1)CN(C(=O)c1cc(Cc3n[nH]c(=O)c4ccccc34)ccc1F)C2 [Compound 55, 5-(2-fluoro-5-((4-oxo-3,4-dihydrophthalazin-1-yl)methyl)benzoyl)-2-isopropyl-2,4,5,6-tetrahydropyrrolo[3,4-c]pyrazol-2-ium hydrogensulfate] | 13.2 nM |

The next lines start with the values.

| IC50 | Compound |
| --- | --- |
| 14.6 nM | O=C(c1cc(Cc2n[nH]c(=O)c3ccccc23)ccc1F)N1Cc2cn[nH]c2C1 [Compound 3, 4-(4-fluoro-3-(1,4,5,6-tetrahydropyrrolo[3,4-c]pyrazole-5-carbonyl)benzyl) phthalazin-1 (2H)-one] |
| 14.1 nM | O=C(c1cc(Cc2n[nH]c(=O)c3ccccc23)ccc1F)N1Cc2cnn(C(=O)C3CC3)c2C1 [Compound 12, 4-(3-(1-(cyclopropanecarbonyl)-1,4,5,6-tetrahydropyrrolo[3,4-c]pyrazole-5-carbonyl)-4-fluorobenzyl)phthalazin-1(2H)-one] |
| 20.2 nM | O=C1NC(=O)C2CN(C(=O)c3cc(Cc4n[nH]c(=O)c5ccccc45)ccc3F)CC12 (stereo not shown) [Compound 22, 5-(2-fluoro-5-((4-oxo-3,4-dihydrophthalazin-1-yl)methyl)benzoyl)tetrahydropyrrolo[3,4-c]pyrrole-1,3(2H,3aH)-dione] |
| 18.4 nM | O=C(c1cc(Cc2n[nH]c(=O)c3ccccc23)ccc1F)N1CC2=C(C1)CS(=O)(=O)C2 [Compound 29, 4-(3-(2,2-dioxido-3,4,5,6-tetrahydro-1H-thieno[3,4-c]pyrrole-5-carbonyl)-4-fluorobenzyl)phthalazin-1(2H)-one] |
| 9.87 nM | O=C(c1cc(Cc2n[nH]c(=O)c3ccccc23)ccc1F)N1Cc2cscc2C1 [Compound 30, 4-(3-(5,6-dihydro-4H-thieno[3,4-c]pyrrole-5-carbonyl)-4-fluorobenzyl)phthalazin-1(2H)-one] |
| 24.2 nM | O=C(c1cc(Cc2n[nH]c(=O)c3ccccc23)ccc1F)N1CC2=C(CNC2)C1 [Compound 31, 4-(4-fluoro-3-(1,2,3,4,5,6-hexahydropyrrolo[3,4-c]pyrrole-2-carbonyl)benzyl) phthalazin-1(2H)-one] |
| 28.5 nM | CN1CC2=C(C1)CN(C(=O)c1cc(Cc3n[nH]c(=O)c4ccccc34)ccc1F)C2 [Compound 33, 4-(4-fluoro-3-(5-methyl-1,2,3,4,5,6-hexahydropyrrolo[3,4-c]pyrrole-2-carbonyl)benzyl) phthalazin-1 (2H)-one] |
| 54.5 nM | O=C1C[C@@H]2CN(C(=O)c3cc(Cc4n[nH]c(=O)c5ccccc45)ccc3F)C[C@@H]2C1 [Compound 39, 4-(4-fluoro-3-((3 aR,6aS)-5-oxooctahydrocyclopenta[c]pyrrole-2-carbonyl)benzyl) phthalazin-1 (2H)-one] |
| 8.9 nM | CCn1cc2c(n1)CN(C(=O)c1cc(Cc3n[nH]c(=O)c4ccccc34)ccc1F)C2 [Compound 41, 4-(3-(2-ethyl-2,4,5,6-tetrahydropyrrolo[3,4-c]pyrazole-5-carbonyl)-4-fluorobenzyl) phthalazin-1 (2H)-one] |
| 48.6 nM | CCn1ncc2c1CN(C(=O)c1cc(Cc3n[nH]c(=O)c4ccccc34)ccc1F)C2 [Compound 42, 4-(3-(1-ethyl-1,4,5,6-tetrahydropyrrolo[3,4-c]pyrazole-5-carbonyl)-4-fluorobenzyl) phthalazin-1 (2H)-one] |
| 15.4 nM | Cn1ncc2c1CN(C(=O)c1cc(Cc3n[nH]c(=O)c4ccccc34)ccc1F)C2 [Compound 54, 4-(4-fluoro-3-(1-methyl-1,4,5,6-tetrahydropyrrolo[3,4-c]pyrazole-5-carbonyl)benzyl) phthalazin-1 (2H)-one benzenesulfonate] |
